Assay results from patent publication US8343893B2, “Substituted enaminocarbonyl compounds” (Bayer Cropscience AG, priority 2009, dated 2013).

System: green peach aphid (Myzus persicae)
Assay: Myzus test (MYZUPE spray treatment)
Format: in vivo
Details: after 5 days; application rate 500 g/ha; spray on Chinese cabbage discs; 100% = all aphids killed
Description: Myzus Test (MYZUPE Spray Treatment) Solvent: 78 parts by weight of acetone and 1.5 parts by weight of dimethylformamide Emulsifier: 0.5 part by weight of alkylaryl polyglycol ether To prepare an active ingredient formulation, 1 part by weight of active ingredient is mixed with the specified amounts of solvent and emulsifier, and the concentrate is diluted to the desired concentration with emulsifier-containing water. Discs of Chinese cabbage (Brassica pekinensis) infested with all stages of the green peach aphid (Myzus persicae) are sprayed with an active ingredient formulation of the desired concentration. After the desired time, the efficacy in % is determined. 100% means that all aphids have been killed; 0% means that no aphids have been killed.

SMILES: CC(=O)OCC(=CC(=O)OC(C)C)N(C)Cc1ccc(Cl)nc1 [Compound 1]
- efficacy in %: 80%
